Our source for the IC50 values is US20090264433A1, “Compounds, Compositions and Methods Comprising Triazine Derivatives” (Institute for OneWorld Health, priority 2008, published 2009).

The target in the test is T1, CFTR channel in human colonic T84 cells (Homo sapiens, UniProt P13569).
T1 construct: results in the phosphorylation and opening of CFTR anion channels; host or cells: human colonic T84 cells
T1 sequence (P13569 whole entry): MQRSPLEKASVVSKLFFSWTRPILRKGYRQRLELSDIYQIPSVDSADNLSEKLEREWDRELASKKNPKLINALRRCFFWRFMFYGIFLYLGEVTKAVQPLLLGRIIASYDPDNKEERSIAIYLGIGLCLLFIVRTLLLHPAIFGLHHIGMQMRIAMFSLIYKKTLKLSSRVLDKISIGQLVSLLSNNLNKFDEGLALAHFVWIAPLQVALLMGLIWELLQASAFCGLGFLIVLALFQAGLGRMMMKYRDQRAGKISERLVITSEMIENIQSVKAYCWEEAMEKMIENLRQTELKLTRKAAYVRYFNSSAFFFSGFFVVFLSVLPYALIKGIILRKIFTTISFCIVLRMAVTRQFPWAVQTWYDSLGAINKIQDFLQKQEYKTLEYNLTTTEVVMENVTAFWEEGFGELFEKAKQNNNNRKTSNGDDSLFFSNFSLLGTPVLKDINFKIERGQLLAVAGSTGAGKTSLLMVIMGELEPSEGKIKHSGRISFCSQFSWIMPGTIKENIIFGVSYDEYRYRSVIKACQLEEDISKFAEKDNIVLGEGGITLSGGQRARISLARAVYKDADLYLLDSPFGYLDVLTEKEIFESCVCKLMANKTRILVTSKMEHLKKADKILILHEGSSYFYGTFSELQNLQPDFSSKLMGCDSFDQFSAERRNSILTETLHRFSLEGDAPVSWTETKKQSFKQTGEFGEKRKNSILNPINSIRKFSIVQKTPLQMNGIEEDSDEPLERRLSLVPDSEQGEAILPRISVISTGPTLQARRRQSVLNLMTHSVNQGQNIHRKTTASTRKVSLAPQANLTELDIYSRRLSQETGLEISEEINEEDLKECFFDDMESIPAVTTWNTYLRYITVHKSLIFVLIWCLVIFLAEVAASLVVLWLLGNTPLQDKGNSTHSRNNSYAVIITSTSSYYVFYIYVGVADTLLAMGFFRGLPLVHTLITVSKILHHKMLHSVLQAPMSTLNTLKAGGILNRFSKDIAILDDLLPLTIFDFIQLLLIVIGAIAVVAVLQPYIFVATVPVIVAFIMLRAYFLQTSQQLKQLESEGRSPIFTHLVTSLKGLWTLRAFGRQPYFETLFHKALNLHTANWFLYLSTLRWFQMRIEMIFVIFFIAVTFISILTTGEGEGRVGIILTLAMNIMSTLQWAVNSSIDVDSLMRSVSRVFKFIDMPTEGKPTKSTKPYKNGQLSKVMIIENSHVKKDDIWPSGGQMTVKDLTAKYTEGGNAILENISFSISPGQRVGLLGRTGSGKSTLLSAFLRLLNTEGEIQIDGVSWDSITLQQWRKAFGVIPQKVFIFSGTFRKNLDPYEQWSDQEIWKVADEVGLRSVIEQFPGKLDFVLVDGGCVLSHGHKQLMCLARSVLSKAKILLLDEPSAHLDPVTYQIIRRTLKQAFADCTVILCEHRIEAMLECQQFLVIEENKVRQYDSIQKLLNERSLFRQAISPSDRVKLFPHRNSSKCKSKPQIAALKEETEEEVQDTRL
Nature of the test: T84 assay (FLIPR membrane potential dye, forskolin/IBMX-stimulated CFTR). The conditions noted are these: average of at least 2 runs unless annotated n = 1. The test is classed as cell-based. Here is the method: (§1) For example, Human colonic T84 cells can be acquired from the European Collection of Cell Cultures (ECACC) and grown in standard culture conditions as described by the supplier. On the day before assay 25,000 T84 cells per well are plated into standard black walled, clear bottom 384-well assay plates in standard growth medium consisting of DMEM:F12 with 10% FBS and incubated overnight. On the day of the assay the plates are washed using a standard assay buffer (HBSS with 10 mM Hepes) and incubated for 15 minutes in serum free cell culture medium before the addition of a commercially available membrane potential sensitive fluorescent dye (FLIPR Red membrane potential dye, Molecular Devices Corporation). T84 cells are incubated with the FLIPR Red membrane potential dye for 45 minutes in the presence and absence of test compound before being transferred to a commercially available fluorescence imaging plate reader (FLIPR384, Molecular Devices Corporation). Fluorescence levels are monitored continuously every second for 150 seconds; after an initial 10 second baseline, CFTR channel activity is stimulated through the addition of 10 μM forskolin in the presence of 100 μM of the phosphodiesterase inhibitor iso-butyl-methylxanthine (IBMX). Addition of the forskolin leads to the activation of intracellular adenylyl cylase 1, elevating cAMP levels and results in the phosphorylation and opening of CFTR anion channels. CFTR channel opening causes chloride ion efflux and subsequent depolarization of the cells, which is measured by an increase in fluorescence. CFTR inhibitor compounds prevent cell depolarization and the associated increase in fluorescence.
as §1, with “Human colonic” for “For example, Human colonic”, “T84 cells are acquired from” for “T84 cells can be acquired from”, “(ECACC) and are grown in” for “(ECACC) and grown in”
As for `CC(C)(C)c1ccc(CCOc2ncc(-c3cc(Br)c(O)c(Br)c3)nn2)cc1` [Compound 93, 2,6-dibromo-4-(3-(4-tert-butylphenethoxy)-1,2,4-triazin-6-yl)phenol], inhibition was half-maximal at 0.64 µM (IC50). To `Oc1c(Cl)cc(-c2cnc(OCc3ccc(CN4CCN(c5ccccc5)CC4)cc3)nn2)cc1Cl` [Compound 143, 2,6-dichloro-4-(3-(4-((4-phenylpiperazin-1-yl)methyl)benzyloxy)-1,2,4-triazin-6-yl)phenol] belongs 3.75 µM. To `Oc1c(Br)cc(-c2cnc(OCc3cc(Cl)cc(Cl)c3)nn2)cc1Br` [Compound 26, 2,6-dibromo-4-(3-(3,5-dichlorobenzyloxy)-1,2,4-triazin-6-yl)phenol] belongs 0.38 µM; to `Cc1ccc(CCOc2ncc(-c3cc(Br)c(O)c(Br)c3)nn2)cc1` [Compound 98, 2,6-dibromo-4-(3-(4-methylphenethoxy)-1,2,4-triazin-6-yl)phenol], 0.3 µM; to `CN(Cc1ccc(COc2ncc(-c3cc(Cl)c(O)c(Cl)c3)nn2)cc1)Cc1cccc(-c2cncnc2)c1` [Compound 206, 2,6-dichloro-4-(3-(4-((methyl(3-(pyrimidin-5-yl)benzyl)amino)methyl)benzyl-oxy)-1,2,4-triazin-6-yl)phenol], 9.6 µM.

The compound `Cc1cc(Cl)ccc1COc1ncc(-c2cc(Br)c(O)c(Br)c2)nn1` [Compound 29, 2,6-dibromo-4-(3-(4-chloro-2-methylbenzyloxy)-1,2,4-triazin-6-yl)phenol] showed an IC50 of 1.35 µM. Regarding `Oc1c(Cl)cc(-c2cnc(OCc3ccc(CN4Cc5ccc(F)cc5C4)cc3)nn2)cc1Cl` [Compound 178, 2,6-dichloro-4-(3-(4-((5-fluoroisoindolin-2-yl)methyl)benzyloxy)-1,2,4-triazin-6-yl)phenol], the IC50 was determined as 3.31 µM. To `Oc1c(Cl)cc(-c2cnc(OCc3ccc(CN4Cc5ccccc5C4)cc3)nn2)cc1Cl` [Compound 162, 2,6-dichloro-4-(3-(4-(isoindolin-2-ylmethyl)benzyloxy)-1,2,4-triazin-6-yl)phenol] belongs 2.96 µM; to `CN(C)c1ccccc1COc1ncc(-c2cc(Cl)c(O)c(Cl)c2)nn1` [Compound 140, 2,6-dichloro-4-(3-(2-(dimethylamino)benzyloxy)-1,2,4-triazin-6-yl)phenol], 19.4 µM. `CC1(C)Cc2cccc(OCc3ncc(-c4cc(Br)c(O)c(Br)c4)nn3)c2O1` [Compound 128, 2,6-dibromo-4-(3-((2,2-dimethyl-2,3-dihydrobenzofuran-7-yloxy)methyl)-1,2,4-triazin-6-yl)phenol] yielded an IC50 of 28.8 µM.

`Cc1cncc(Oc2cccc(CN(C)Cc3ccc(COc4ncc(-c5cc(Cl)c(O)c(Cl)c5)nn4)cc3)c2)n1` [Compound 203, 2,6-dichloro-4-(3-(4-((methyl(3-(6-methylpyrazin-2-yloxy)benzyl)amino)methyl)benzyloxy)-1,2,4-triazin-6-yl)phenol]: half-maximal inhibition (IC50) was put at 2.43 µM. As for `Oc1c(Br)cc(-c2cnc(OCc3ccccn3)nn2)cc1Br` [Compound 104, 2,6-dibromo-4-(3-(pyridin-2-ylmethoxy)-1,2,4-triazin-6-yl)phenol], the figure is 16 µM. As for `Oc1c(Br)cc(-c2cnc(OCc3cccc4ccccc34)nn2)cc1Br` [Compound 13, 2,6-dibromo-4-(3-(naphthalen-1-ylmethoxy)-1,2,4-triazin-6-yl)phenol], the figure is 0.88 µM; as for `CN(CCOc1ncc(-c2cc(Cl)c(O)c(Cl)c2)nn1)Cc1ccccc1` [Compound 138, 4-(3-(2-(benzyl(methyl)amino)ethoxy)-1,2,4-triazin-6-yl)-2,6-dichlorophenol], 18.9 µM; as for `CC(Oc1ncc(-c2cc(Br)c(O)c(Br)c2)nn1)c1ccc(Cl)cc1` (stereo not shown) [Compound 11, 2,6-dibromo-4-(3-(1-(4-chlorophenyl)ethoxy)-1,2,4-triazin-6-yl)phenol], 0.84 µM.

Take `Oc1c(Cl)cc(-c2cnc(OCc3ccc(CN4CCN(Cc5cccnc5)CC4)cc3)nn2)cc1Cl` [Compound 158, 2,6-dichloro-4-(3-(4-((4-(pyridin-3-ylmethyl)piperazin-1-yl)methyl)benzyloxy)-1,2,4-triazin-6-yl)phenol]: the IC50 worked out at 14.2 µM. To `Oc1c(Br)cc(-c2cnc(OCc3ccc(Cl)cc3Cl)nn2)cc1Br` [Compound 15, 2,6-dibromo-4-(3-(2,4-dichlorobenzyloxy)-1,2,4-triazin-6-yl)phenol] belongs 0.94 µM; to `Oc1c(Br)cc(-c2cnc(COc3cc(Cl)ccc3Cl)nn2)cc1Br` [Compound 43, 2,6-dibromo-4-(3-((2,5-dichlorophenoxy)methyl)-1,2,4-triazin-6-yl)phenol], 11.1 µM; to `Oc1c(Br)cc(-c2cnc(C(O)(c3ccc(Cl)cc3)c3ccc(Cl)cc3)nn2)cc1Br` [Compound 100, 4-(3-(bis(4-chlorophenyl)(hydroxy)methyl)-1,2,4-triazin-6-yl)-2,6-dibromophenol], 7.77 µM.

In turn, `Oc1c(Cl)cc(-c2cnc(OCc3cccc(OC(F)(F)F)c3)nn2)cc1Cl` [Compound 153, 2,6-dichloro-4-(3-(3-(trifluoromethoxy)benzyloxy)-1,2,4-triazin-6-yl)phenol] came in with an IC50 of 2.17 µM. The compound `CN1CCN(CC(NCc2ccc(COc3ncc(-c4cc(Cl)c(O)c(Cl)c4)nn3)cc2)c2ccccc2)CC1` (stereo not shown) [Compound 195, 2,6-dichloro-4-(3-(4-((2-(4-methylpiperazin-1-yl)-1-phenylethylamino)methyl)benzyloxy)-1,2,4-triazin-6-yl)phenol] returned an IC50 of 7.47 µM. As for `Oc1c(Cl)cc(-c2cnc(OC(Cc3ccccc3)c3ccccc3)nn2)cc1Cl` (stereo not shown) [Compound 111, 2,6-dichloro-4-(3-(1,2-diphenylethoxy)-1,2,4-triazin-6-yl)phenol], the figure is 1.89 µM. In turn, `CN(C)CCCOc1ccc(CN(C)Cc2ccc(COc3ncc(-c4cc(Cl)c(O)c(Cl)c4)nn3)cc2)cc1` [Compound 199, 2,6-dichloro-4-(3-(4-(((4-(3-(dimethylamino)propoxy)benzyl)(methyl)amino)methyl)benzyl-oxy)-1,2,4-triazin-6-yl)phenol] gave an IC50 of 7.54 µM. As for `Oc1c(Br)cc(-c2cnc(COc3ccc(Br)cc3)nn2)cc1Br` [Compound 49, 2,6-dibromo-4-(3-((4-bromophenoxy)methyl)-1,2,4-triazin-6-yl)phenol], the figure is 15.3 µM; as for `Oc1c(Cl)cc(-c2cnc(OCc3ccc(CN4CCc5ccccc5C4c4ccncc4)cc3)nn2)cc1Cl` (stereo not shown) [Compound 193], 3.92 µM. In turn, `Oc1c(Cl)cc(-c2cnc(OCc3ccc(F)cc3)nn2)cc1Cl` [Compound 146, 2,6-dichloro-4-(3-(4-fluorobenzyloxy)-1,2,4-triazin-6-yl)phenol] returned an IC50 of 5.21 µM. As for `Oc1c(Cl)cc(-c2cnc(OCc3ccc(CN4CCC(Cc5ccccc5)CC4)cc3)nn2)cc1Cl` [Compound 168, 4-(3-(4-((4-benzylpiperidin-1-yl)methyl)benzyloxy)-1,2,4-triazin-6-yl)-2,6-dichlorophenol], the figure is 13.9 µM; as for `CN(Cc1ccc(COc2ncc(-c3cc(Cl)c(O)c(Cl)c3)nn2)cc1)Cc1ccc(-c2ccccn2)cc1` [Compound 197, 2,6-dichloro-4-(3-(4-((methyl(4-(pyridin-2-yl)benzyl)amino)methyl)benzyl-oxy)-1,2,4-triazin-6-yl)phenol], 2.64 µM.
